Measured values reported in patent US20240228562A1, “NOVEL LIPOCALIN MUTEINS SPECIFIC FOR CONNECTIVE TISSUE GROWTH FACTOR (CTGF)” (PIERIS PHARMACEUTICALS GMBH, priority 2021, published 2024).

How the values were obtained:
[1] = tested on: CCL-206 lung fibroblasts co-cultured with primary murine Epcam-positive epithelial progenitor cells; assay: Lung organoid formation model; format: cell-based; details: 14 days treatment; nintedanib 100 nM; SEQ ID NO: 74 at 100 nM
Experimental: The effect of CTGF-targeting lipocalin muteins was analyzed using an organoid model for lung regeneration. In this model, CCL-206 lung fibroblasts are co-cultured with freshly isolated primary murine Epcam-positive epithelial progenitor cells, and the number of formed organoids is analyzed after 14 days. TGF-b1 pre-treatment of CCL-206 fibroblasts leads to an impaired organoid formation and resembles an impairment of lung regeneration as for example observed in lung disease, such as IPF. The impaired formation of organoids can be rescued by treatment with different drugs, such as nintedanib, which is used as a positive control in this model. […] Analysis of organoid numbers confirmed the impairment of organoid formation by TGF-b1 stimulation.

[2] = tested on: idiopathic pulmonary fibrosis (IPF); details: cited from earlier work; for Decline in lung function in IPF: FDA-approved drugs for IPF; for Tolerability in IPF patients: gastrointestinal and other drug-related tolerability issues
[3] = tested on: human melanoma cell lines; details: cited from earlier work

| Compound | Effect on TGF-b1 impaired organoid formation [1] | Decline in lung function in IPF [2] | Tolerability in IPF patients [2] | Disease progression in patients suffering from IPF ([2]; phase 2 clinical trial) | Migration of human melanoma cell lines [3] |
| --- | --- | --- | --- | --- | --- |
| COC(=O)c1ccc2c(c1)NC(=O)/C2=C(\Nc1ccc(N(C)C(=O)CN2CCN(C)CC2)cc1)c1ccccc1 [nintedanib] | partially rescued | slowing down the decline in lung function | not well-tolerated | – | – |
| Cc1ccc(=O)n(-c2ccccc2)c1 [pirfenidone] | – | slowing down the decline in lung function | not well-tolerated | – | – |
| FG-3019/pamrevlumab: anti-CTGF monoclonal antibody in clinical trials | – | – | – | attenuated disease progression | inhibition of the migration |
